Measured values as given in PubChem BioAssay AID1982 (Sanford-Burnham Center for Chemical Genomics, 2009).
Active and inactive are the calls of the source. The rule behind the calls is not given here.

How the values were obtained:
Experiment in all cases: kinase panel binding selectivity, selectivity assay, biochemical, KINOMEscan (AID 1982)
[1] = target: MAP/microtubule affinity-regulating kinase 3 (Homo sapiens) (UniProt P27448); conditions: KINOMEscan 353-kinase binding panel, qPCR; MARK3; at 10 µM; active compounds read low
Chain of MAP/microtubule affinity-regulating kinase 3 (Homo sapiens) (P27448 whole entry, looked up): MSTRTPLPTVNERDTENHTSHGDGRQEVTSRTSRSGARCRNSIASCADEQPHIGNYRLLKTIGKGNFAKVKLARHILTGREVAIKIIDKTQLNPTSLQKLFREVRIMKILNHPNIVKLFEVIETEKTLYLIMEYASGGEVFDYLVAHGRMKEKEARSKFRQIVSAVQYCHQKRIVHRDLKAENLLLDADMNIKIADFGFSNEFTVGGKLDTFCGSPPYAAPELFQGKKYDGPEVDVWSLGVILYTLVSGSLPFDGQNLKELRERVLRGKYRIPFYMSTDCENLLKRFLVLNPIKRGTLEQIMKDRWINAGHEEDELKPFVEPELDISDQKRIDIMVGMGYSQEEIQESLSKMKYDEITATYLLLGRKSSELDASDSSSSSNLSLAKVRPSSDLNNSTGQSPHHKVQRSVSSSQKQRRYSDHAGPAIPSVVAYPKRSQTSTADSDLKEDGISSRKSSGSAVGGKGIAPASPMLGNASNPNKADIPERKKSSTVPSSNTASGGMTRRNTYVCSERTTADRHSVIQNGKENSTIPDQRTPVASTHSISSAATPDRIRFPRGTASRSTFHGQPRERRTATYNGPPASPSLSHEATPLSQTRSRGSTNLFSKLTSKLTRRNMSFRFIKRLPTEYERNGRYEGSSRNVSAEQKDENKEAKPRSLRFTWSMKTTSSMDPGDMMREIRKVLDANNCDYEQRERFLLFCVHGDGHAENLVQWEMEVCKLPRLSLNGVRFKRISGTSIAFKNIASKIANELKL

PFTK1 = conditions: KINOMEscan 353-kinase binding panel, qPCR, at 10 µM, active compounds read low
ACVR1B = conditions: KINOMEscan 353-kinase binding panel, qPCR, at 10 µM, active compounds read low
[2] = target: Tyrosine-protein kinase JAK3 (Homo sapiens) (UniProt P52333); conditions: KINOMEscan 353-kinase binding panel, qPCR; JAK3(Kin.Dom.2); at 10 µM; active compounds read low
Chain of Tyrosine-protein kinase JAK3 (Homo sapiens) (P52333 whole entry, looked up): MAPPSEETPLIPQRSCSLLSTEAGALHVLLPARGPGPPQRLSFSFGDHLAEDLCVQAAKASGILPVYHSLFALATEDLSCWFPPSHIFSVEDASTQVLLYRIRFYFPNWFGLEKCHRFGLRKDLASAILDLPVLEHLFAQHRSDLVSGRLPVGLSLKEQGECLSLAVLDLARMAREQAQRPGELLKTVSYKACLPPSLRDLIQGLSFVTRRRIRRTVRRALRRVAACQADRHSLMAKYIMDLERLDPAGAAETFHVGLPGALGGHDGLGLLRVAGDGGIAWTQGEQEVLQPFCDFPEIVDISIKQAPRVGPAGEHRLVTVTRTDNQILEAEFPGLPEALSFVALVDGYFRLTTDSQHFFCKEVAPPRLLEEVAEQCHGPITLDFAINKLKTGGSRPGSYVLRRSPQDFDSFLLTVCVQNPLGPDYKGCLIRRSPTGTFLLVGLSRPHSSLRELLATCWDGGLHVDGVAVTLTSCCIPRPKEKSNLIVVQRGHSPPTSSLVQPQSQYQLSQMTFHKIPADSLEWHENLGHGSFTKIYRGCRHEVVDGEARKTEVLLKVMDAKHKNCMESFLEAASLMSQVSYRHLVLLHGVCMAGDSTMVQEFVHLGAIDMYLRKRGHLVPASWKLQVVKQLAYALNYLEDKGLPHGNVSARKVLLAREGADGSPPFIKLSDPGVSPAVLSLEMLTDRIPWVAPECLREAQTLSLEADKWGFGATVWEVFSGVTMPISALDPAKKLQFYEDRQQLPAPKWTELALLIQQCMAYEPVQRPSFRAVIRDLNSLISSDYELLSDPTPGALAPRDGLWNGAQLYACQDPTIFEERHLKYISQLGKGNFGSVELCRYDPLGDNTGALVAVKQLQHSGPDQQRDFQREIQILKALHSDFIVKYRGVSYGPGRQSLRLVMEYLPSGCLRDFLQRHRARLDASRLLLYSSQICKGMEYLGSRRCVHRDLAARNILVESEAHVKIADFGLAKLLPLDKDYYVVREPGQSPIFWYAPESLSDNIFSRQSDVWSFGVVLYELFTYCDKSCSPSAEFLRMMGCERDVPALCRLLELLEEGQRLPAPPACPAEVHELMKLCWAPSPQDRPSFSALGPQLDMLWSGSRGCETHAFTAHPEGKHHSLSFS

[3] = target: MAP kinase-interacting serine/threonine-protein kinase 2 (Homo sapiens) (UniProt Q9HBH9); conditions: KINOMEscan 353-kinase binding panel, qPCR; MKNK2; at 10 µM; active compounds read low
Chain of MAP kinase-interacting serine/threonine-protein kinase 2 (Homo sapiens) (Q9HBH9 whole entry, looked up): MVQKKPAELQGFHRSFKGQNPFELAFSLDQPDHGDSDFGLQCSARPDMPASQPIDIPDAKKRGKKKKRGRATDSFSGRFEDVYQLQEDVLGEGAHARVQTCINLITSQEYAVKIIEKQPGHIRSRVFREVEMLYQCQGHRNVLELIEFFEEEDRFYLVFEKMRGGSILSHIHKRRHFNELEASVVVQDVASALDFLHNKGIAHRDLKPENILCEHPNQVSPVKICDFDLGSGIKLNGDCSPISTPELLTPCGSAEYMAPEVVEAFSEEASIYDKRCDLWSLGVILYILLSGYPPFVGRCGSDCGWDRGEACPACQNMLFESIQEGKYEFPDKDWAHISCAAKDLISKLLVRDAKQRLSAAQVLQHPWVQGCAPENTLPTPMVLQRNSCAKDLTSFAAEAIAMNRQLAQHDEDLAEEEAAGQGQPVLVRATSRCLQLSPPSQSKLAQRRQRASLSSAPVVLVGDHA

ARK5 = conditions: KINOMEscan 353-kinase binding panel, qPCR, at 10 µM, active compounds read low
[4] = target: Calcium/calmodulin-dependent protein kinase type II subunit beta (Homo sapiens) (UniProt Q13554); conditions: KINOMEscan 353-kinase binding panel, qPCR; CAMK2B; at 10 µM; active compounds read low
Chain of Calcium/calmodulin-dependent protein kinase type II subunit beta (Homo sapiens) (Q13554 whole entry, looked up): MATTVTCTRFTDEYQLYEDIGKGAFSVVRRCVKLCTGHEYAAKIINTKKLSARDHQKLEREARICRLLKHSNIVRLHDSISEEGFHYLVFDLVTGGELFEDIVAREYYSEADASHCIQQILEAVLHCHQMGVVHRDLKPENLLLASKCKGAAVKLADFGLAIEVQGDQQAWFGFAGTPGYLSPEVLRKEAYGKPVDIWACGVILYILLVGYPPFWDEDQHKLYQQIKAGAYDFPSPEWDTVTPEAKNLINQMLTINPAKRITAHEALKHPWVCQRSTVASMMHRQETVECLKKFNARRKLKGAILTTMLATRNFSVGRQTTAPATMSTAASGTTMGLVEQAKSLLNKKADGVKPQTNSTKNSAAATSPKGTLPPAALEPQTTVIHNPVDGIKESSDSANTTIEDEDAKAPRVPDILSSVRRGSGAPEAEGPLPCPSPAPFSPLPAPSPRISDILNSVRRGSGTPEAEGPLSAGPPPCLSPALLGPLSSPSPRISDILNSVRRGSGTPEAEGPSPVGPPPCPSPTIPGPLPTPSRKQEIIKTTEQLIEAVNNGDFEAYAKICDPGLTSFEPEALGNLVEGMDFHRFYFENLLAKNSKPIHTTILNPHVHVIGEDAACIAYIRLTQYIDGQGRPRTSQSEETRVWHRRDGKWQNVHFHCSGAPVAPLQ

[5] = target: Serine/threonine-protein kinase SIK2 (Homo sapiens) (UniProt Q9H0K1); conditions: KINOMEscan 353-kinase binding panel, qPCR; SNF1LK2; at 10 µM; active compounds read low
Chain of Serine/threonine-protein kinase SIK2 (Homo sapiens) (Q9H0K1 whole entry, looked up): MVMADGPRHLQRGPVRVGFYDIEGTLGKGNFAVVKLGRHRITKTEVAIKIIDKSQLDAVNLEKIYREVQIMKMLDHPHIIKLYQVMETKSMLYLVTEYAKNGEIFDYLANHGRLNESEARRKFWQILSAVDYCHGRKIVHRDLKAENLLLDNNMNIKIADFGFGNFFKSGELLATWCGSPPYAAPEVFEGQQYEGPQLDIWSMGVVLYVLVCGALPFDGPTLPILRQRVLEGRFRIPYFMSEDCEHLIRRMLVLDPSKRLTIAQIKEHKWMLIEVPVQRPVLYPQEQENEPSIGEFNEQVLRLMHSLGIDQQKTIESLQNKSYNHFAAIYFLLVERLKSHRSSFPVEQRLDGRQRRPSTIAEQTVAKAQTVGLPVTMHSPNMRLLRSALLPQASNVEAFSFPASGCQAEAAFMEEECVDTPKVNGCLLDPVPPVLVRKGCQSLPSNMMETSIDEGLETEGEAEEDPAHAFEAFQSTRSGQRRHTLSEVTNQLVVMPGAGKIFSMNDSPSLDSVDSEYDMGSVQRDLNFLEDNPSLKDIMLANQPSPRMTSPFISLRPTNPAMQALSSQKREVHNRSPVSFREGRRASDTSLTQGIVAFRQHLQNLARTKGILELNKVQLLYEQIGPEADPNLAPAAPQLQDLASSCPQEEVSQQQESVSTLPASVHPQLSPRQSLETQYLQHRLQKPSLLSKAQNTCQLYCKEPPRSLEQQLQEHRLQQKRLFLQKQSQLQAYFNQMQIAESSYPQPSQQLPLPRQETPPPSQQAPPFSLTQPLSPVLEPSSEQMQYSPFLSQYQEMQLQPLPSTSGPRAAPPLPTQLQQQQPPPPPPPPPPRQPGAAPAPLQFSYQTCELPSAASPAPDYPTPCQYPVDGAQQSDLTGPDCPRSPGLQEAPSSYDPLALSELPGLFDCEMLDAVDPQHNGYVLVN

[6] = target: Serine/threonine-protein kinase TAO1 (Homo sapiens) (UniProt Q7L7X3); conditions: KINOMEscan 353-kinase binding panel, qPCR; TAOK1; at 10 µM; active compounds read low
PKAC-beta = conditions: KINOMEscan 353-kinase binding panel, qPCR, at 10 µM, active compounds read low
ADCK4 = conditions: KINOMEscan 353-kinase binding panel, qPCR, at 10 µM, active compounds read low
RPS6KA2(Kin.Dom.1) = conditions: KINOMEscan 353-kinase binding panel, qPCR, at 10 µM, active compounds read low
CDKL2 = conditions: KINOMEscan 353-kinase binding panel, qPCR, at 10 µM, active compounds read low
[7] = target: Cyclin-dependent kinase 2 (Homo sapiens) (UniProt P24941); conditions: KINOMEscan 353-kinase binding panel, qPCR; CDK2; at 10 µM; active compounds read low
NDR2 = conditions: KINOMEscan 353-kinase binding panel, qPCR, at 10 µM, active compounds read low
[8] = target: Casein kinase I isoform gamma-3 (Homo sapiens) (UniProt Q9Y6M4); conditions: KINOMEscan 353-kinase binding panel, qPCR; CSNK1G3; at 10 µM; active compounds read low
[9] = target: Dual specificity protein kinase CLK4 (Homo sapiens) (UniProt Q9HAZ1); conditions: KINOMEscan 353-kinase binding panel, qPCR, at 10 µM, active compounds read low
Chain of Dual specificity protein kinase CLK4 (Homo sapiens) (Q9HAZ1 whole entry, looked up): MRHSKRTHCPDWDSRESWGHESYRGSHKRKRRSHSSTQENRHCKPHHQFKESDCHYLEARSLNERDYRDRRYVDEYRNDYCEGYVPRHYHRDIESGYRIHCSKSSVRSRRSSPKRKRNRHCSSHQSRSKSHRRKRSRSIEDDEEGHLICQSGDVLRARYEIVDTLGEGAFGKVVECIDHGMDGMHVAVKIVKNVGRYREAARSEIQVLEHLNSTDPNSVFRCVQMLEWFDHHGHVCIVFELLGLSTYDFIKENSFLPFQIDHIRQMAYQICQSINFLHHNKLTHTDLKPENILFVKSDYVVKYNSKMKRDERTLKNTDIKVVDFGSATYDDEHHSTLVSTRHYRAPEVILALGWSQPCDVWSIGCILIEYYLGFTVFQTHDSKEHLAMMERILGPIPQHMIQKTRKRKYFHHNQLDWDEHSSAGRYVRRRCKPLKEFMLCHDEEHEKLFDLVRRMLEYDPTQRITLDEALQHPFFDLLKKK

PAK2 = conditions: KINOMEscan 353-kinase binding panel, qPCR, at 10 µM, active compounds read low
PIK3C2B = conditions: KINOMEscan 353-kinase binding panel, qPCR, at 10 µM, active compounds read low
INSRR = conditions: KINOMEscan 353-kinase binding panel, qPCR, at 10 µM, active compounds read low
MEK6 = conditions: KINOMEscan 353-kinase binding panel, qPCR, at 10 µM, active compounds read low
[10] = target: Casein kinase I isoform gamma-1 (Homo sapiens) (UniProt Q9HCP0); conditions: KINOMEscan 353-kinase binding panel, qPCR; CSNK1G1; at 10 µM; active compounds read low
Chain of Casein kinase I isoform gamma-1 (Homo sapiens) (Q9HCP0 whole entry, looked up, canonical isoform): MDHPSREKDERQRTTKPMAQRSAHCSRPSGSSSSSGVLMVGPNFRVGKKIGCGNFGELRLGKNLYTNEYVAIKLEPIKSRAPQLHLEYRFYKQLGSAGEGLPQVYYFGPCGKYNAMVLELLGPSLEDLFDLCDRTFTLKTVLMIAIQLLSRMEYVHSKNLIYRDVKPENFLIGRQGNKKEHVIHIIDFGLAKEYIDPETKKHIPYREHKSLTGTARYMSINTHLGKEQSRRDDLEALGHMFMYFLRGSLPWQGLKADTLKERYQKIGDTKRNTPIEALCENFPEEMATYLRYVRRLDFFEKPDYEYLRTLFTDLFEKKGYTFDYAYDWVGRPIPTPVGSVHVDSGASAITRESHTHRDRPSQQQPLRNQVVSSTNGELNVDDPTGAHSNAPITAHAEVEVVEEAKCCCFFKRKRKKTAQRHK

PIK3CA(E545K) = conditions: KINOMEscan 353-kinase binding panel, qPCR, at 10 µM, active compounds read low
[11] = target: cGMP-dependent protein kinase 2 (Homo sapiens) (UniProt Q13237); conditions: KINOMEscan 353-kinase binding panel, qPCR; PRKG2; at 10 µM; active compounds read low
EPHA4 = conditions: KINOMEscan 353-kinase binding panel, qPCR, at 10 µM, active compounds read low
RIPK1 = conditions: KINOMEscan 353-kinase binding panel, qPCR, at 10 µM, active compounds read low
[12] = target: Mitogen-activated protein kinase 3 (Homo sapiens) (UniProt P27361); conditions: KINOMEscan 353-kinase binding panel, qPCR; ERK1; at 10 µM; active compounds read low
[13] = target: MAP kinase-activated protein kinase 2 (Homo sapiens) (UniProt P49137); conditions: KINOMEscan 353-kinase binding panel, qPCR; MAPKAPK2; at 10 µM; active compounds read low
[14] = target: Tyrosine-protein kinase Yes (Homo sapiens) (UniProt P07947); conditions: KINOMEscan 353-kinase binding panel, qPCR, at 10 µM, active compounds read low
[15] = target: LIM domain kinase 1 (Homo sapiens) (UniProt P53667); conditions: KINOMEscan 353-kinase binding panel, qPCR; LIMK1; at 10 µM; active compounds read low
RIPK4 = conditions: KINOMEscan 353-kinase binding panel, qPCR, at 10 µM, active compounds read low
[16] = target: RAF proto-oncogene serine/threonine-protein kinase (Homo sapiens) (UniProt P04049); conditions: KINOMEscan 353-kinase binding panel, qPCR; RAF1; at 10 µM; active compounds read low
[17] = target: Glycogen synthase kinase-3 alpha (Homo sapiens) (UniProt P49840); conditions: KINOMEscan 353-kinase binding panel, qPCR; GSK3A; at 10 µM; active compounds read low

Measured: percent of control binding

Cc1cc2nc(NCCCO)n(CC(=O)c3cc(C(C)(C)C)c(O)c(C(C)(C)C)c3)c2cc1C
inactive: [1] 100% | PFTK1 88% | ACVR1B 84% | [2] 100% | [3] 81% | ARK5 100% | [4] 100% | [5] 100% | [6] 90% | PKAC-beta 95% | ADCK4 100% | RPS6KA2(Kin.Dom.1) 90% | CDKL2 96% | [7] 95% | NDR2 100% | [8] 100% | [9] 100% | PAK2 84% | PIK3C2B 90% | INSRR 100% | MEK6 97% | [10] 91% | PIK3CA(E545K) 100% | [11] 100% | EPHA4 86% | RIPK1 100% | [12] 94% | [13] 81% | [14] 100% | [15] 95% | RIPK4 89% | [16] 43% | [17] 99%
